Experimental data: article PMC11792066, “Development of benzofuran-derived sulfamates as dual aromatase-steroid sulfatase inhibitors (DASIs): design, synthesis and biological evaluation” (RSC Medicinal Chemistry, 2025)
Where “and” joins values, the source holds several entries; their conditions need not be identical. Equal values may be shown once. Read-outs that look alike come from different tables or passages of the source.

What was measured:
[1] = target: T1, steroid sulfatase (STS) (Homo sapiens, UniProt P08842); experiment: Steroid sulfatase activity assay, cell-free JEG-3 lysate, [3H]oestrone sulfate substrate; assay type: biochemical; settings: for IC50: 20 μM E1S, 37 °C, 1 h, triplicate
T1 construct: lysates from JEG-3 cells, known to have high endogenous STS activity; host or cells: JEG-3 cell lysate (supernatant after centrifugation)
T1 sequence (P08842 22-583): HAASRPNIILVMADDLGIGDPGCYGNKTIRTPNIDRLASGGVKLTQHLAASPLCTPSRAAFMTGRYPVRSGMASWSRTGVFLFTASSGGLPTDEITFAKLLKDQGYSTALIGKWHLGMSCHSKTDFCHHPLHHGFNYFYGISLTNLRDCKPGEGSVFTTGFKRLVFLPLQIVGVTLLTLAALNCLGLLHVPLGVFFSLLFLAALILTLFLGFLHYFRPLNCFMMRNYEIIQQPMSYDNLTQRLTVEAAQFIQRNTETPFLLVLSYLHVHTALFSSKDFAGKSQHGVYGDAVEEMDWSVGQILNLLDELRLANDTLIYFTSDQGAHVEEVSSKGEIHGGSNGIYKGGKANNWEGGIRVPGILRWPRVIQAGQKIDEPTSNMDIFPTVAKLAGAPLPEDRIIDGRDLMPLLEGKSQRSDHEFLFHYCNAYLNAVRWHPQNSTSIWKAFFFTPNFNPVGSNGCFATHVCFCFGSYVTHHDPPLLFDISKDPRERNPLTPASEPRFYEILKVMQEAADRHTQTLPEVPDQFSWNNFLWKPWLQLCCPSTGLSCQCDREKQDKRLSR
Protocol: (§1) JEG-3 cells (ATCC) were cultured in Eagle's minimal essential medium (EMEM) supplemented with 10% fetal calf serum (FCS). The cells were maintained at 37 °C in a humidified incubator with 5% CO2. Then, the cells were cultured to approximately 80% confluence before any treatments were applied.
STS activity was measured using an in vitro, cell-free assay. Briefly, lysates from JEG-3 cells, known to have high endogenous STS activity, were prepared by lysing the cells with a buffer (50 mM Tris-HCl, pH 7.4, and 1 mM EDTA). After centrifugation, the supernatant was collected and protein concentrations were determined using a BCA assay kit.
For the steroid sulfatase assay, 125 μg of JEG-3 lysate was incubated with the substrate [^3H]oestrone sulfate (E1S, 4 × 10^5 dpm) diluted to a final concentration of 20 μM using non-radioactive E1S. The mixture was incubated in the presence of different concentrations of inhibitors (ranging from 10^−11 M to 10^−5 M) at 37 °C for 1 hour. After incubation, the reaction was stopped by placing the tubes on ice, and the estrone product formed was separated from the substrate by extraction with toluene. [^14C]oestrone was added to the organic phase as an internal standard to monitor recovery and procedural losses.
The organic phase was subjected to liquid scintillation counting to measure both ^3H and ^14C. The amount of E1S hydrolysed was calculated from the ^3H counts, corrected for recovery using the ^14C standard, and converted into molar concentrations of hydrolysed product. The inhibitory activity of test compounds was expressed as the IC50 value, representing the concentration required to inhibit 50% of the STS activity.

[2] = target: T2, aromatase (CYP19A1) (Homo sapiens, UniProt P11511); experiment: Aromatase activity assay, modified tritiated water assay in JEG-3 cells; assay type: cell-based; settings: 1 h incubation, triplicate
T2 construct: host or cells: JEG-3 cells
T2 sequence (P11511 1-503): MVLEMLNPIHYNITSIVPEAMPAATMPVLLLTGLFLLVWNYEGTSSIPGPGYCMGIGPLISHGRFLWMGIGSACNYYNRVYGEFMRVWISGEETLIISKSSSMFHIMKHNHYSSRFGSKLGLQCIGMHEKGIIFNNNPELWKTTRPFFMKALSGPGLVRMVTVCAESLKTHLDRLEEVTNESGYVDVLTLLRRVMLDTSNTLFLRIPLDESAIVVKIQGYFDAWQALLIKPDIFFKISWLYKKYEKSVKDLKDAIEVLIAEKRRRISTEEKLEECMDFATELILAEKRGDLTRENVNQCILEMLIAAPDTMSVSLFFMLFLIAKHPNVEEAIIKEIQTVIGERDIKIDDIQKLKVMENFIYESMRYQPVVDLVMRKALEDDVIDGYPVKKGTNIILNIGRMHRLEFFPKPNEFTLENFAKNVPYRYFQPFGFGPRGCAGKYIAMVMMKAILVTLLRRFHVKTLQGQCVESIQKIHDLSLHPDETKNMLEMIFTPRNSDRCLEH
Protocol: Seven compounds including the two carbamate side products were investigated for their aromatase inhibitory activity at 10 nM using the previously reported modified tritiated water assay.[20]
as §1
The aromatase activity was measured using a modified tritiated water assay. The JEG-3 cells were cultured in six-well plates in EMEM until reaching 80% confluence. The substrate androst-4-ene-3,17-dione [1β-^3H] was added to each well in a serum-free medium. In the presence and absence of dual inhibitors (at concentrations ranging from 0.001 to 10 nM), the cells were incubated at 37 °C for 1 hour. The reaction was stopped by placing the plates on ice for 5 minutes. The medium (500 μL) was obtained, vortexed with 2% dextran-treated charcoal in PBS, and centrifuged at 4000 rpm. [^3H]H2O in the supernatant was quantified using scintillation counting. The aromatase activity was normalized to protein concentration, determined by the Pierce BCA assay kit (Thermo Fisher Scientific), and expressed as pmol of product per mg of protein per hour.

[3] = JEG-3 cells, read-out: Arom IC50

Row | SMILES | IC50 [1] | IC50 [2, 3] [nM] | STS inhibitory activity (in words) [1] | IC50 ([2]; Arom IC50, JEG-3 cells) [nM]
1 | NC(=O)Oc1ccc2cc(C(=O)c3ccc(Cl)cc3)oc2c1 [compound 20, 2-(4-Chlorobenzoyl)benzofuran-6-yl carbamate] | ≥ 1000 nM and 1220 nM | ≥ 1000 |  | 
2 | N#Cc1ccc(C(=O)c2cc3ccc(OS(N)(=O)=O)cc3o2)cc1 [18f, 2-(4-Cyanobenzoyl)benzofuran-6-yl sulfamate] | 280 nM | > 1000 |  | 
3 | NS(=O)(=O)Oc1ccc(C(c2cc3cc(Cl)ccc3o2)n2cncn2)cc1 (stereo not drawn) [8a, 4-((5-Chlorobenzofuran-2-yl)(1H-1,2,4-triazol-1-yl)methyl)phenyl sulfamate] |  | > 10 | neither the triazole sulfamates (6, 7, 8a, 9, 10a) nor the triazole carbamates (8b, 10b) displayed STS inhibitory activity | 
4 | Cc1c(C(=O)c2ccc(F)cc2)oc2cc(OS(N)(=O)=O)ccc12 [19a, 2-(4-Fluorobenzoyl)-3-methylbenzofuran-6-yl sulfamate] | 654 nM | 50 |  | 
5 | NC(=O)Oc1ccc(C(c2cc3cc(Cl)ccc3o2)n2cncn2)cc1 (stereo not drawn) [8b] |  |  | neither the triazole sulfamates (6, 7, 8a, 9, 10a) nor the triazole carbamates (8b, 10b) displayed STS inhibitory activity | 4.1
6 | COc1ccc(C(=O)c2cc3ccc(OS(N)(=O)=O)cc3o2)cc1 [18e, 2-(4-Methoxybenzoyl)benzofuran-6-yl sulfamate] | 115 nM | > 1000 |  | 
7 | NS(=O)(=O)Oc1ccc2cc(C(=O)c3ccc(Cl)cc3Cl)oc2c1 [18d, 2-(2,4-Dichlorobenzoyl)benzofuran-6-yl sulfamate] | 310 nM | > 1000 |  | 
8 | Cc1c(C(=O)c2ccc(Br)cc2)oc2cc(OS(N)(=O)=O)ccc12 [19c, 2-(4-Bromobenzoyl)-3-methylbenzofuran-6-yl sulfamate] | 830 nM | 22 |  | 
9 | N#Cc1ccc(C(c2cc3ccc(OC(N)=O)cc3o2)n2cncn2)cc1 (stereo not drawn) [10b, 2-((4-Cyanophenyl)(1H-1,2,4-triazol-1-yl)methyl)benzofuran-6-yl carbamate] |  |  | neither the triazole sulfamates (6, 7, 8a, 9, 10a) nor the triazole carbamates (8b, 10b) displayed STS inhibitory activity | 0.65
10 | NS(=O)(=O)Oc1ccc2cc(C(=O)c3ccc(Cl)cc3)oc2c1 [18b, 2-(4-Chlorobenzoyl)benzofuran-6-yl sulfamate] | 410 nM | > 1000 |  | 
11 | NS(=O)(=O)Oc1ccc2cc(C(=O)c3ccc(Br)cc3)oc2c1 [18c, 2-(4-Bromobenzoyl)benzofuran-6-yl sulfamate] | 510 nM | > 1000 |  | 
12 | NS(=O)(=O)Oc1ccc2cc(C(c3ccc(Cl)cc3)n3cncn3)oc2c1 (stereo not drawn) [compound 6, 2-((4-Chlorophenyl)(1H-1,2,4-triazol-1-yl)methyl)benzofuran-6-yl sulfamate] |  | 1.4 | neither the triazole sulfamates (6, 7, 8a, 9, 10a) nor the triazole carbamates (8b, 10b) displayed STS inhibitory activity | 
13 | NS(=O)(=O)Oc1ccc2c3c(c(=O)oc2c1)CCCCC3 [STX64, Irosustat, reference compound] |  | > 1000 |  | 
14 | NS(=O)(=O)Oc1ccc2cc(C(c3ccc(F)cc3)n3cncn3)oc2c1 (stereo not drawn) [compound 9, 2-((4-Fluorophenyl)(1H-1,2,4-triazol-1-yl)methyl)benzofuran-6-yl sulfamate] |  | 8.4 | neither the triazole sulfamates (6, 7, 8a, 9, 10a) nor the triazole carbamates (8b, 10b) displayed STS inhibitory activity | 
15 | NS(=O)(=O)Oc1ccc2cc(C(=O)c3ccc(F)cc3)oc2c1 [18a, 2-(4-Fluorobenzoyl)benzofuran-6-yl sulfamate] | 740 nM | > 1000 |  | 
16 | N#Cc1ccc(C(c2cc3ccc(OS(N)(=O)=O)cc3o2)n2cncn2)cc1 (stereo not drawn) [10a, 2-((4-Cyanophenyl)(1H-1,2,4-triazol-1-yl)methyl)benzofuran-6-yl sulfamate] |  | 1.52 | neither the triazole sulfamates (6, 7, 8a, 9, 10a) nor the triazole carbamates (8b, 10b) displayed STS inhibitory activity | 
17 | COc1ccc(C(=O)c2oc3cc(OS(N)(=O)=O)ccc3c2C)cc1 [19e, 2-(4-Methoxybenzoyl)-3-methylbenzofuran-6-yl sulfamate] | 164 nM | 35 |  | 
18 | Cc1c(C(=O)c2ccc(Cl)cc2)oc2cc(OC(N)=O)ccc12 [compound 21, 2-(4-Chlorobenzoyl)-3-methylbenzofuran-6-yl carbamate] | ≥ 1000 nM and 980 nM | ≥ 1000 |  | 
19 | Cc1c(C(=O)c2ccc(Cl)cc2)oc2cc(OS(N)(=O)=O)ccc12 [19b, 2-(4-Chlorobenzoyl)-3-methylbenzofuran-6-yl sulfamate] | 48 nM | 137 |  | 
20 | NS(=O)(=O)Oc1ccc2oc(C(c3ccc(Cl)cc3)n3cncn3)cc2c1 (stereo not drawn) [compound 7, 2-((4-Chlorophenyl)(1H-1,2,4-triazol-1-yl)methyl)benzofuran-5-yl sulfamate] |  | 5.49 | neither the triazole sulfamates (6, 7, 8a, 9, 10a) nor the triazole carbamates (8b, 10b) displayed STS inhibitory activity | 
21 | Cc1c(C(=O)c2ccc(Cl)cc2Cl)oc2cc(OS(N)(=O)=O)ccc12 [19d, 2-(2,4-Dichlorobenzoyl)-3-methylbenzofuran-6-yl sulfamate] | 1500 nM | 20 |  | 
22 | N#Cc1ccc(C(c2ccc(C#N)cc2)n2cncn2)cc1 [Letrozole, reference compound] | > 1000 nM |  |  | 
